Measured values as given in patent US20260216342A1, “COMPOUNDS FOR NUCLEIC ACID CLEAVAGE” (priority 2023, published 2026).

Tests used:
[1] = test system: E. coli ribosome; assay: In vitro degradation of E. coli ribosome (agarose gel); type: biochemical; details: 15 mM to 0.47 mM, 18 hours at 37° C.
Experimental: The degradation activity was measured in an in vitro assay, targeting the E. coli ribosome. 200 μM […] were incubated with degrader in different concentration, ranging from 15 mM to 0.47 mM, for 18 hours at 37° C. Evaluation was made by agarose gel analysis.

[2] = test system: SARS-CoV-2; assay: Virucidal activity on cell free virions; details: 6 μM, 1 h at 37° C., 1000 PFU, plaque assay
[3] = test system: SARS-CoV-2; assay: Viral plaque-forming units by plaque assay; type: cell-based; details: supernatants of cultures treated with 6 mM for 24 h, vs vehicle control
[4] = test system: SARS-CoV-2; type: in vivo, K18-hACE2 transgenic mice; details: 10 mg/kg intranasally 1 hour pre-infection and 3 hours post-infection, day 5, plaque assay
[5] = test system: SARS-CoV-2; type: cell-based; details: Vero CCL-81, MOI 0.05, 24 h
[6] = test system: RNA extracted from SARS-CoV-2; assay: Gel electrophoresis of SARS-CoV-2 RNA after degrader incubation; type: biochemical; details: 100 μM, 2 h at 37° C.; FIG. 5f
[7] = test system: RNA 69-er corresponding to the coronaviral pseudoknot; type: biochemical; details: 1 mM, 3 h incubation at 37° C.
[8] = test system: G4-forming RNA oligomer; assay: Degradation of G4-forming RNA oligomer by non-covalent PDS-based degraders; type: biochemical; details: 200 μM, CuSO4/THPTA/NaAsc, 37° C. for 4 h, LC-MS; FIG. 15
Experimental: […]. The mixture was heated at 95° C. for 5 minutes, then kept on ice for 30 minutes. CuSO4 (final concentration 200 μM), THPTA (700 μM) and NaAsc (50 mM) were then added, alongside with CBX-PDS, PDS-deg6 or PDS-Amlmi (200 μM). The reaction mixture was incubated at 37° C. for 4 h, quenched with EDTA (final concentration 12 mM) and then kept at 4° C. The reaction mixtures were analysed by LC-MS.

## chloramphenicol-6PEG-imidazole degrader [18a]
[1]
  ribosome degradation: no degradation visible

## CCOC(=O)c1ccccc1NC(=O)N1CCCN(Cc2csc(C)n2)CC1 [MTDB]
[2]
  virucidal effect on cell free virus: no virucidal effect was observed
[3]
  number of viral plaques: only showed decreased number of viral plaques when added before infection
[4]
  lung viral load: No differences in lung viral load
[5]; added before or after infection
  antiviral effect (coronaviral RNA in cells): did not exhibit an antiviral effect
[5]; drug added 1 h before or 1 h after infection
  50% inhibitory concentration (IC50): did not inhibit viral replication and thus IC50 values could not be determined
[6]
  degradation of full-length coronaviral RNA on agarose gel: the two control molecules do not
[7]
  degradation of RNA pseudoknot: no degradation

## O=C(N[C@H](CO)[C@H](O)c1ccc([N+](=O)[O-])cc1)C(Cl)Cl [chloramphenicol, Chloramphenicol]
[1]
  ribosome degradation: no degradation

## CN(C)Cc1nccn1CCOCCOCCOCCOCCOCCn1cc(COc2cc(C(=O)Nc3cc(OCCN)c4ccccc4n3)nc(C(=O)Nc3cc(OCCN)c4ccccc4n3)c2)nn1 [PDS-Amimi]
[8]
  degrader potency on G4-forming RNA oligomer: more potent degrader than PDS-deg6

## chloramphenicol-ethyl-imidazole degrader [18c]
[1]
  ribosome degradation: no degradation visible

## chloramphenicol-2PEG-imidazole degrader [18b]
[1]
  ribosome degradation: ribosome degradation could be observed at a concentration of 15 mM
